According to patent US20240408069A1, “NON-INVASIVE MONITORING OF LIVER DISEASE TREATMENT” (INVENTIVA, priority 2023, published 2024):

Experiments:
[1] = tested on: adult patients with highly active, non-cirrhotic NASH; assay: NATIVE phase 2b trial, histological response on liver biopsy after 24 weeks of lanifibranor; type: in vivo, human
Source text: Patients were eligible for inclusion if they were 18 years of age or older and had non-cirrhotic NASH (the diagnosis of which required a Steatosis, Activity, Fibrosis [SAF] grade of 1 or higher for steatosis, hepatocellular ballooning and lobular inflammation on liver biopsy). A score of 3 or higher on the SAF-A (the activity part of the SAF scoring system that incorporates the scores for hepatocellular ballooning and lobular inflammation) was also a criterion for eligibility. Patients with stage F4 fibrosis, classified according to the criteria of both the SAF and NASH Clinical Research Network (NASH CRN) were excluded from the study. Patients were randomly assigned in a 1:1:1 ratio to receive 800 or 1200 mg lanifibranor or placebo once daily for 24 weeks. Liver biopsy was obtained at baseline and at the end of treatment. The primary end point of the NATIVE study was defined as a decrease of at least 2 points from baseline to Week 24 (end of treatment) in the SAF-A score and no worsening of fibrosis. Secondary histologic end points included resolution of NASH (defined as a ballooning grade of 0 and a lobular inflammation grade of ≤1) and no worsening of fibrosis; improvement in fibrosis of at least 1 stage and no worsening of NASH (i.e., no worsening in either steatosis, ballooning, or lobular inflammation); Nonalcoholic Fatty Liver Disease Activity Score (NAS) improvement (defined as a decrease of >2 points from baseline to week 24 in the NAS) and no worsening of fibrosis; resolution of NASH and an improvement in fibrosis stage of at least 1 (as a composite end point); change in scores for the components of the SAF and NASH CRN scoring system (steatosis, activity, inflammation, ballooning, and fibrosis); and change in the modified Ishak score. Non-histologic secondary endpoints included changes in a panel of serum biomarkers related to metabolism, inflammation tissue injury and fibrosis. Patients receiving lanifibranor 800 or 1200 mg per day were pooled and those with pre- and post-treatment liver biopsies were selected (n=142). Post-treatment biopsies were considered if they occurred within 14 days following last lanifibranor intake. The following histological endpoint according to NASH-CRN criteria was considered: NASH resolution and fibrosis improvement of at least 1 stage (E1). In the NATIVE trial, from February 2017 through July 2019, 247 patients were randomly assigned to receive 1200 mg of lanifibranor (N=83), 800 mg of lanifibranor (N=83), or placebo (N=81) orally once daily for 6 months. A total of 228 patients completed the trial, 77 in each lanifibranor group and 74 in the placebo group. Reasons for discontinuation of the trial regimen have been reported elsewhere. Finally, among the 154 patients treated with lanifibranor at both doses, 142 patients (N=70 and N=72 patients treated with 800 or 1200 mg per day, respectively) presented with pre- and post-treatment liver biopsies within the time frame required for the present work and were included in the analysis population for signature development.

[2] = tested on: adult patients with highly active, non-cirrhotic NASH; details: cited from earlier work

Compound: O=C(O)CCCc1cc2cc(Cl)ccc2n1S(=O)(=O)c1ccc2ncsc2c1 [lanifibranor, 4-[1-(1,3-benzothiazol-6-ylsulfonyl)-5-chloroindol-2-yl] butanoic acid]
- Resolution of NASH and improvement of liver fibrosis ≥1 Stage (E1), number of patients reaching endpoint ([1]; 800 mg once daily, N=70): 17 patients
- Resolution of NASH and improvement of liver fibrosis ≥1 Stage (E1), patients reaching endpoint ([1]; 800 mg once daily, N=70): 24%
- Resolution of NASH and improvement of liver fibrosis ≥1 Stage (E1), number of patients reaching endpoint ([1]; 1200 mg once daily, N=72): 25 patients
- Resolution of NASH and improvement of liver fibrosis ≥1 Stage (E1), patients reaching endpoint ([1]; 1200 mg once daily, N=72): 35%
- Resolution of NASH and improvement of liver fibrosis ≥1 Stage (E1), number of patients reaching endpoint ([1]; pooled lanifibranor group (800 or 1200 mg once daily), N=142): 42 patients
- Resolution of NASH and improvement of liver fibrosis ≥1 Stage (E1), patients reaching endpoint ([1]; pooled lanifibranor group (800 or 1200 mg once daily), N=142 with pre- and post-treatment biopsies): 30%
- Percentage of patients with a decrease of at least 2 points in SAF-A score without worsening of fibrosis, compared to placebo ([2]; daily dose of 1200 mg, versus placebo): significantly higher
- Secondary endpoints (NASH resolution and fibrosis improvement, NASH resolution without worsening of fibrosis, improvement of fibrosis without worsening of NASH), compared to placebo ([2]; lanifibranor groups versus placebo, NASH-CRN): more favorable than placebo
